Experimental data taken from paper PMC11395145, “The Archetypal Gamma-Core Motif of Antimicrobial Cys-Rich Peptides Inhibits H^+-ATPases in Target Pathogens” (International Journal of Molecular Sciences, 2024).
Where a SMILES comes first, the peptide text is derived from it. Bridges are numbered along the chain shown (N, C = ends).

Assays:
[1] = test system: Pseudomonas aeruginosa 10145 (PAO1); assay: Microbicidal (spread-plate cell viability) assay, pseudomonacidal activity; type: cell-based; conditions: for microbicidal (pseudomonacidal) activity, in words: 90 min, 37 °C, Tris buffer pH 7.4, 10^6 cells/mL, CFU plating
Method: (§1) First, we tested the antimicrobial activity of Kal-1 and a shorter Kal-1-derived peptide (Kdp15), both containing the complete γ-core signature of human lactoferrin, against C. albicans and P. aeruginosa. Microbicidal (cidal) activity was determined after 90 min of incubation (37 °C; pH 7.4) with a range of concentrations of each hLf-derived peptide.
(§2) Figure 1 Cell viability and membrane permeabilization assays. C. albicans or P. aeruginosa (10^6 cells/mL) were incubated (90 min, 37 °C) with each peptide/protein at the indicated concentrations. Aliquots were plated on SDA or […], and colonies were counted after 24–48 h (C. albicans) or 24 h (P. aeruginosa). At each point, samples were stained with propidium iodide (PI) and intracellular PI incorporation, indicative of membrane permeabilization, was quantified by flow cytometry. The relative cell viability (blue lines) and cellular permeabilization (red lines) were calculated as the percentage of untreated cells. Human lactoferrin (hLf) and the peptide Lfpep were used as negative and positive controls of cellular permeabilization, respectively.
(§3) Microbial susceptibility to the peptides was determined in a spread-plate assay as described previously. Briefly, two-fold serially diluted peptides were incubated (37 °C) with approximately 10^6 cells/mL in Tris buffer (10 mM Tris-HCl, pH 7.4). After 90 min of incubation with the peptides, aliquots were removed and plated in duplicate on an appropriate agar plate for each species (SDA for C. albicans, TSA for P. aeruginosa). The plates were incubated for 24–48 h at 30 °C (C. albicans) or 24 h at 37 °C (P. aeruginosa) for enumeration. The cell viability values, expressed as colony forming units (CFUs), were determined relative to incubation without added peptides and represent the mean ± standard deviation (±SD) of at least three independent determinations. For inhibition assays, the cell suspensions were preincubated (15 min at 37 °C) with the corresponding inhibitors before the addition of peptides. Water-insoluble inhibitors were prepared in DMSO, such that the final assay volume was ≤1%. Other specific experimental inhibition conditions are described where appropriate. The IC50 value is expressed as the concentration that caused 50% reduction in viable counts.

[2] = test system: Candida albicans ATCC 10231; assay: Microbicidal (spread-plate cell viability) assay, candidacidal activity; type: cell-based; conditions: for microbicidal (candidacidal) activity, in words: 90 min, 37 °C, Tris buffer pH 7.4, 10^6 cells/mL, CFU plating
Method: as §1, §2, §3

[3] = test system: P. aeruginosa cells; assay: Oxygen consumption measurement (Clark-type electrode); type: cell-based, Pseudomonas aeruginosa; conditions: 5 × 10^6 cells/mL, peptides at IC50, piericidin A 32 μM, at least 30 min, 25 °C
Method: (§4) Figure 3 Effect of cellular respiration on the microbicidal activity of hLf γ-core-containing peptides. (A,C) Oxygen consumption was measured in C. albicans and P. aeruginosa cellular suspensions in the absence (control) or the presence of kaliocin-1 (Kal-1), Kdp15, or human lactoferrin (hLf), and piericidin A (positive control). (B,D) Effect of cellular respiration on the microbicidal activity of hLf γ-core-containing peptides. Cells (10^6 cells/mL) were pre-incubated (15 min, 37 °C) with 32 μM piericidin A and incubated for 90 min at 37 °C with the peptides hLf or BM2. The cell viability was determined by means of the plate counting method. The results are the mean ± SD from duplicates of at least three independent experiments. * p < 0.05, ** p < 0.01, and *** p < 0.001 were used.
(§5) C. albicans or P. aeruginosa cells were grown to the mid-logarithmic phase, washed twice in Tris buffer, and resuspended in the same buffer, as described in [9, 10]. Briefly, cells (5 × 10^6 cells/mL) were pre-incubated for 15 min at 37 °C with the peptides (IC50). […] Oxygen consumption was measured using a Clark-type oxygen electrode (Dual digital-model 20, Rank Brothers Ltd., Cambridge, UK) in a closed jacketed chamber maintained at 25 °C. […] The viability of the cells was determined at 30 min by removing aliquots from the oxygen chambers and plating the subsequent dilutions on SDA or TSA plates.

[4] = test system: C. albicans cells; assay: as above; type: cell-based, Candida albicans; conditions: 5 × 10^6 cells/mL, peptides at IC50, piericidin A 32 μM, at least 30 min, 25 °C
Method: as §4, §5

[5] = test system: C. albicans cells; assay: Measurement of intracellular ATP (BacTiter-Glo); type: cell-based, Candida albicans; conditions: C. albicans 10^6 cells/mL, candidacidal concentration, 90 min, 37 °C; BM2 0.25 μM
Method: Total ATP was measured by using the BacTiter-Glo^TM Microbial Cell Viability Assay (Promega Co., Madison, WI, USA) according to the manufacturer’s instructions. […] Aliquots (100 μL) were incubated (90 min at 37 °C) with kaliocin-1, Kdp15, or human lactoferrin and the BM2 peptide (positive control). One hundred microliters of incubation mix was transferred into a 96-well opaque white plate, mixed with an equal volume of the BacTiter-Glo reagent, and incubated for 15 min in the dark. The reagent used a thermostable luciferase to produce luminescence in an ATP-dependent manner. The emitted luminescence was detected by using a Varioskan Flash multimode reader (Thermo Scientific, Waltham, MA, USA) with a 10 s of shaking and 1 s integration time. A calibration curve was prepared for each experiment, with ATP standards ranging from 1 to 1000 nM. For assays performed in the presence of the BM2 peptide, samples were preincubated with 0.25 μM BM2 for 30 min at 37 °C. All the tests were performed in triplicate at least four times.

[6] = test system: Candida albicans ATCC 10231; conditions: used in control assays; cited from earlier work
Method: as §1, with “peptide. The hLf γ-core-containing peptides were microbicidal in a concentration-dependent way (Figure 1). […] The IC50 es ...” for “peptide.”

[7] = concentration range 0 to 100 μM

Question: For CC[C@H](C)[C@@H]1NC(=O)[C@H](C(C)C)NC(=O)[C@H](CC(C)C)NC(=O)CNC(=O)[C@H](C(C)C)NC(=O)[C@@H]2CCCN2C(=O)[C@H]([C@@H](C)CC)NC(=O)[C@@H]2CSSC[C@@H]3NC(=O)[C@H](C(C)C)NC(=O)CNC(=O)[C@H](CC(N)=O)NC(=O)[C@@H](NC(=O)[C@H](CO)NC(=O)[C@H](C)NC(C)=O)CSSC[C@H](NC(=O)[C@H](C)NC(=O)[C@H](CO)NC(=O)[C@H]([C@@H](C)O)NC(=O)CNC(=O)[C@H](CSSC[C@@H](C(=O)N[C@@H](CCCNC(=N)N)C(=O)N[C@@H](CC(N)=O)C(=O)N4CCC[C@H]4C(=O)N[C@@H](CO)C(=O)NCC(N)=O)NC(=O)[C@H](Cc4ccc(O)cc4)NC(=O)CNC1=O)NC(=O)[C@@H]1CCCN1C(=O)[C@@H]1CCCN1C(=O)[C@H](CCSC)NC(=O)[C@H](CCC(=O)O)NC(=O)[C@H](Cc1ccccc1)NC(=O)[C@@H]1CCCN1C(=O)[C@H](CO)NC3=O)C(=O)N[C@@H](CCCNC(=N)N)C(=O)N2 [PA1b] (Ac-ASCNGVCSPFEMPPCGTSACRCIPVGLVIGYCRNPSG-NH2; disulfide 3-20, 7-22, 15-32), which “microbicidal (pseudomonacidal) activity, in words” value [1] is on record?
Answer: The value was “not pseudomonacidal”.

Question: And the “microbicidal (candidacidal) activity, in words” value [2]?
Answer: Its value is “showed candidacidal activity”.

Question: For C/C=C(\C)[C@H](O)[C@H](C)/C=C(C)/C=C/C/C(C)=C/Cc1nc(OC)c(OC)c(O)c1C [piericidin A, reference compound], which “oxygen consumption of P. aeruginosa in presence of the substance” value [3] is on record?
Answer: The value was “inhibited”.

Question: What about the “oxygen consumption of C. albicans in presence of the substance” value [4] of the same compound?
Answer: The value was “inhibited”.

Question: Which “antimicrobial activity, in words” value [1, 7] does the source give for CAGTGENKC [Kdp9] here?
Answer: Its value is “not detected”.

Question: And the “antimicrobial activity, in words” value [2, 7]?
Answer: Its value is “not detected”.

Question: With “D-NH2-RRRFWWFRRR-CONH2 [BM2, reference compound]” as the compound, how does the “increment in intracellular ATP (iATP) level compared to untreated control” value [5] read?
Answer: The value was ~ 9 fold.

Question: And the “decrease of candidacidal activity by oligomycin A” value ([2]; 0.25 μM BM2, cells pre-incubated 15 min, 37 °C with 16 μg/mL oligomycin A)?
Answer: Its value is ~ 62%.

Question: And the “effect of high external K^+ on candidacidal activity” value ([2]; Tris buffer with 50 mM KCl vs without)?
Answer: Its value is “decreased”.

Question: And the “effect of respiration inhibition (piericidin A) on candidacidal activity” value ([2]; cells pre-incubated 15 min, 37 °C with 32 μM piericidin A, then 90 min with peptide)?
Answer: The value was “substantially inhibited”.

Question: And the “effect of Tok1p K^+ channel block (TEA^+) on candidacidal activity” value ([2]; cells pre-incubated 15 min with 10 mM TEA^+)?
Answer: The value was “significantly (p < 0.001) inhibited”.

Question: What about the “previously reported microbicidal concentration (organism not given)” value [6] of the same compound?
Answer: The value was 0.25 µM.

Question: For “GSKKPVPIIYCNRRTGKCQRM [Thanatin, complete 21-aa antimicrobial peptide from Podisus maculiventris (insect)]”, which “microbicidal (pseudomonacidal) activity, in words” value [1] is on record?
Answer: The value was “most potent”.

Question: And the “microbicidal (candidacidal) activity, in words” value [2]?
Answer: The value was “most potent”.

Question: With “HCKNKEHLRSGRCRDDFRCWCT [PvD1, 22-aa γ-core fragment of defensin PvD1 from Phaseolus vulgaris (bean)]” as the compound, how does the “microbicidal (pseudomonacidal) activity, in words” value [1] read?
Answer: The value was “showed pseudomonacidal activity”.
